Laboratory results: patent US20100311107A1, “Ultra-High Throughput Screening of Natural Products” (priority 2004, published 2010)
Like-named read-outs stand apart in the source and are kept apart here. Numbered stars: 1 amine (or outer) side, 2 acyl side, 3 side chain; on linkers, the order of the positions; unused ones are H or OH. Bridge positions count the residues as written; N and C are the ends. Square brackets hold non-standard residues; d marks the D form. Peptide text beside a SMILES is read from it. I, II: the chains in the order shown. Actinocin(9to1) = Cc1c2oc3c(C)ccc(C(=O)[*:1])c3nc-2c(C(=O)[*:2])c(N)c1=O; NMeV = CN[C@H](C(=O)O)C(C)C; Sar = CNCC(=O)O

Assays:
Assay type in all cases: cell-based, Escherichia coli
[1] = test system: E. coli screening strain CM242; set-up: unit not given here
Description: (§1) The level of drug resistance of these screening strains (both intermediates and finals) was evaluated by standard MIC assay in MHB liquid medium and the result of Strain CM242 is summarized in Table 12.

[2] = test system: E. coli screening strain DR1234; set-up: unit not given here
Description: (§2) The screening strain, DR1234, was established after all desired drug-resistant genes listed in Table 5 had been delivered into the parent E. coli strain, MG1655, by methods described above. Its level of drug resistance was analyzed by the standard minimum inhibitory concentration (MIC) assay in MHB liquid medium (Chantot, et al., 1986, “Antibacterial activity of roxithromycin: a laboratory evaluation,” J. Antibiot, 39(5):660-8) and the result was summarized in Table 7.

[3] = test system: E. coli screening strain DR1212; set-up: unit not given here
Description: (§3) The level of drug-resistance of screening strain DR1212 was analyzed by standard MIC assay in MHB liquid medium and the result was summarized in Table 11. Similar to screening strains, DR1234 and CM166, DR1212 is also resistant to drugs whose resistant genes have been introduced.

[4] = test system: E. coli screening strain CM166; set-up: unit not given here
Excerpt: (§4) The level of drug resistance of CM166 was estimated by MIC assay carried out in MHB liquid medium and the results were summarized in Table 9. CM166 is resistant to antibacterial agents whose resistant genes have been incorporated into the strain, but not to other antibacterial drugs whose resistant genes are not incorporated.

[5] = test system: lacZ reporter gene of the screening strains (CM191, CM242); assay: S-Gal staining assay on solid medium; conditions: for lacZ reporter gene expression (S-Gal, blue-colored rings): screening strains on solid medium, drug-impregnated disks, PETG to suppress background
Excerpt: The screening strains' responses to DNA damaging agents were further confirmed by S-Gal staining assay. When mitomycin C and streptonigrin (both were well-known DNA damaging drugs) and S-Gal, the indicator, were applied to the screening strains growing on solid medium, blue-colored rings were visible around colonies in drug-impregnated disks. […] Actinomycin D was an exception. CM242 was not sensitive to this drug, although it disrupts DNA structure. PETG (2-phenyethyl B-D-thiogalactoside, Sigma, St Louis Mo.), was used in this experiment to suppress unspecific background activity.

[6] = test system: E. coli screening strain CM435; set-up: Minimal inhibitory concentrations (MIC90) CM435: unit not given here
[7] = test system: E. coli screening strain CM400; set-up: unit not given here
Description: (§5) The level of drug resistance of screening strains CM400 and CM435 was evaluated by standard MIC assay in MHB liquid medium and the results are summarized in Table 13. According to the MIC results, CM435 is hypersensitive to Bleomycin, Daunorucibin, Coumermycin A1 and Erythromycin. Screening strain CM435 and others, which are hypersensitive to certain types of antimicrobial agents, are advantageous in detecting bioactive compounds with low concentration in the screening system.

[8] = test system: E. coli MG1655; set-up: unit not given here
Description: as §2, §4, §3, §1, §5

[9] = test system: screening strain DR1212; assay: macrodroplet screening assay for DNA-interacting agents; conditions: DNA excluded from the bioassay medium
Description: (§6) After the period of incubation as described above, macrodroplets can be screened for biological activities by a unique technique termed macrodroplet screening assay. The biological activities of compounds secreted by the encapsulated microorganisms and contained within the macrodroplet beads can be detected by, for example, cell growth inhibition. In general, screening strains should first be cultured to a certain cell density (proper OD reads as described in section 5.3.3.) in liquid medium and then plated in semi-solid medium matrix (0.8%), which overlays the macrodroplet beads (see FIG. 1, item 140. Item 145 of FIG. 1 represents the top layer of semi-solid medium matrix containing a selected screening strain). After being incubated overnight, the screening strain can grow throughout the matrix, except in areas where macrodroplet beads release metabolites, which prevent the growth of the screening strain. The inhibition of cell growth may result in zones of inhibition around these beads (see item 155, FIG. 1), which usually can be detected visually.
Screening for DNA-interacting agents was carried out using the standard macrodroplet screening method previously described, with the exception that DNA was excluded from the bioassay medium. Following overnight incubation at 35° C., macrodroplet beads from zones of inhibition are recovered and processed via the normal route as discussed in section 5.2.2.4.
Alternatively, a second round screening was performed to increase specificity of the screening. Microorganisms obtained as the outcome of the screening described above were subject to a second round of screening using screening strains having a lacZ reporter gene controlled by promoters responsive to DNA damage, such as CM191 and CM242 (see section 5.3.1.d. The details of screening procedure are discussed in both section 5.2.3. Microorganisms from macrodroplets producing zones of activity were purified using methods previously described and fermented in larger volumes. Their species specificities were determined by sequencing their 16S rRNA genes and the active compounds were purified and further characterized. Several active compounds were selected by DR1212, such as chrysomycin, streptonigrin, daunomycin and chromomycin, which are all known DNA damaging agents.

[10] = test system: BW25113 strain containing drug-resistant genes inserted into the bioA locus; assay: drug resistance characterization of strain with Tn7 cassette in bioA locus; conditions: BW25113 with Tn7 cassette in bioA, native sat promoter
Description: Therefore, a functional copy was introduced by homologous recombination as described hereafter. The drug-resistant gene of interest was synthesized in vitro using PCR with oligonucleotide primers that contained homologous sequences to the target genes and an additional ˜50 by homologous to a particular chromosomal site of the recipient strain. For instance, to insert the Tn7-associated resistance gene cassette dhfrI-sat-aadA into the bioA gene locus of the recipient strain, the primers listed in Table 6 were used. The capitalized portions of these primers hybridized to Tn7 template DNA upstream and downstream of the resistance gene cassette and allowed PCR amplification of the target fragment (Roche (Mannheim, Germany) Long Template PCR System). The ˜50 by additional sequence of these oligonucleotides (low case) afforded regions of homology with the chromosomal target site of the recipient, in this instance, the bioA gene locus (Table 6). The PCR product of the above reaction was introduced into a specialized strain, BW25113 (obtained from the E. coli Genetic Stock Center, strain # 7739) by standard electroporation following the manufacturer's instruction of BioRad (Hercules, Calif.) Gene Pulser, model #1652076, for standard electroporation of E. coli. Double-crossover homologous recombination, mediated by the bacteriophage lambda Red recombinase present in the strains pKD46 [#7630], pKD78 [#7989] or pKD119 [#7990], occurred between the “bioA” locus of the recipient strain and the PCR products via their homologous regions designed in the PCR primers as described above, resulting in the insertion of the drug resistance cassette into the bioA locus of the chromosome (FIG. 3, item 315). […] Once verified by drug resistance characterization and diagnostic PCR assay (see above), the drug resistance-encoding locus from the BW25113/pKD46 strain was introduced into the same locus of the recipient screening strain by standard P1 transduction as described above, also see FIG. 3, item 310.
To increase the gene expression level, the T7 promoter was used to replace the weak promoter of sat gene.

[11] = test system: screening strain CM166; assay: macrodroplet screening assay, zones of inhibition; conditions: soil actinomycetes in macrodroplets, DNA and biotin in medium
Description: as §6
Next, microorganisms from the soil samples collected as described above were encapsulated to form macrodroplets populated by a single microorganism in each bead, according to the pre-determined cfu count of the particular soil extract. In this process, an aliquot of the soil bacteria suspension was diluted in 10% glycerol to generate an inoculum of the required density. This adjusted suspension was then mixed with nutrient medium, counterselective agents (see above) and 1.4% sodium alginate and the resultant mixture processed through an Inotech Encapsulator® Research device, to produce gel-beads (called macrodroplets) by the formation of droplets of liquid from a fluid stream. The droplets solidified into gel-beads as they came into contact with a calcium chloride bath, which also contained nutrient medium and counterselective agents. After a defined hardening time the macrodroplets were washed to remove excess calcium chloride and to stop the hardening process. Smidsrod and Skjak-Braek, 1990, “Alginate as immobilization matrix for cells,” Trends Biotechnol. 8(3):71-8. Cured macrodroplets containing microorganisms were then spread in dishes from which excess fluid was removed. The macrodroplets subsequently allowed growth of the target organisms and production of secondary metabolites such as anti-microbial agents. Macrodroplets were spread evenly over the plate using a sterile spreader (5,000 particles per plate) and incubated at 28-30° C. for 7 days to allow the growth of the microorganism within, and the production of secondary metabolites.
CM166 (see section 5.3.1.b for details) was used as the test strain in this example. Two to three single colonies of CM166 were inoculated into a shake flask containing 10 ml of MHB medium with 40 μg/ml Tmp and 200 μg/ml Amp. After the cells were cultured at 35° C. for 2-3 hours, an OD reading was performed. If the OD reading was above 0.1 (equivalent to 2×10^8 cfu), the screening strain was ready for dilution. Otherwise, the strain needed to be incubated for longer time until the OD read reached >0.1. Medium for the macrodroplet assay (in 1 L Duran, add 10.5 g MHB power, 4 g agar (0.8%), and 1 g DNA) was autoclaved and cooled to ˜45° C., and ampicillin (25 mg/ml), tetracycline (10 mg/ml), daptomycin (20 mg/ml) and biotin (0.1 μg/ml) were added, together with 2.5 ml screening strain. […]

Row | Compound | Minimal inhibitory concentrations (MIC90) CM242 ([1]; second Table 12, MHB medium) | Minimal inhibitory concentrations (MIC90) DR1234 ([2]; Table 7, MHB medium) | Minimal inhibitory concentrations (MIC90) DR1212 ([3]; Table 11, MHB medium) | Minimal inhibitory concentrations (MIC90) CM166 ([4]; Table 9, MHB medium) | Minimal inhibitory concentrations (MIC90) CM435 ([6]; Table 13, MHB medium) | Minimal inhibitory concentrations (MIC90) CM400 ([7]; Table 13, MHB medium) | Minimal inhibitory concentrations (MIC90) MG1655 ([8]; Table 7, MHB medium) | Minimal inhibitory concentrations (MIC90) MG1655 ([8]; Table 9, MHB medium) | Minimal inhibitory concentrations (MIC90) MG1655 ([8]; Table 11, MHB medium) | Minimal inhibitory concentrations (MIC90) MG1655 ([8]; Table 13, MHB medium) | Minimal inhibitory concentrations (MIC90) MG1655 ([8]; second Table 12, MHB medium) | active compound selected by DR1212 [9] | bioactive compound of actinomycete strains selected with CM166 [11] | other results
1 | Cc1c2oc3c(C)ccc(C(=O)N[C@@H]4C(=O)N[C@H](C(C)C)C(=O)N5CCC[C@H]5C(=O)N(C)CC(=O)N(C)[C@@H](C(C)C)C(=O)O[C@@H]4C)c3nc-2c(C(=O)N[C@@H]2C(=O)N[C@H](C(C)C)C(=O)N3CCC[C@H]3C(=O)N(C)CC(=O)N(C)[C@@H](C(C)C)C(=O)O[C@@H]2C)c(N)c1=O [Actinomycin D] (I: T[dV]P[Sar][NMeV] / II: T[dV]P[Sar][NMeV]; ester I:1-I:C, II:1-II:C; linker I:N-II:N via Actinocin(9to1)) | 200 | 100 | 50.0 | 50 | 256 | 256 | 200 | 200 | 200 | 256 | 200 | – | – | sensitivity of CM242 reporter to the drug ([5]; CM242, S-Gal staining): not sensitive
2 | COc1cccc2c1C(=O)c1c(O)c3c(c(O)c1C2=O)C[C@@](O)(C(C)=O)C[C@@H]3O[C@H]1C[C@H](N)[C@H](O)[C@H](C)O1 [Daunorubicin] | 100 | >400 | 12.5 | >400 | 8 | >256 | 200 | 200 | 200 | >256 | 200 | active | – | sensitivity of CM435 according to the MIC results ([6]; MHB liquid medium): hypersensitive
3 | CCn1cc(C(=O)O)c(=O)c2ccc(C)nc21 [Nalidixic Acid] | >400 | 400 | 50 | 800 | >64 | >64 | 6.3 | 6.3 | 6.3 | 8 | 6.3 | – | – | lacZ reporter gene expression (S-Gal, blue-colored rings) [5]: not expressed
4 | COC1=C(N)C(=O)c2nc(-c3nc(C(=O)O)c(C)c(-c4ccc(OC)c(OC)c4O)c3N)ccc2C1=O [Streptonigrin] | 3.2 | 3.2 | ≦0.2 | 1.6 | 0.5 | 8 | 3.2 | 3.2 | 3.2 | 8 | 3.2 | active | – | lacZ reporter gene expression (S-Gal, blue-colored rings) [5]: induced
5 | COc1cc(Cc2cnc(N)nc2N)cc(OC)c1OC [Trimethoprim] | – | – | – | – | – | – | – | – | – | – | – | – | – | resistance conferred, concentration [10]: at least 10 ug/ml; Minimal inhibitory concentrations (MIC90) CM242 [1]: >400; Minimal inhibitory concentrations (MIC90) DR1234 [2]: >400; Minimal inhibitory concentrations (MIC90) DR1212 [3]: >400; Minimal inhibitory concentrations (MIC90) CM166 [4]: >400; lacZ reporter gene expression (S-Gal, blue-colored rings) [5]: not expressed; Minimal inhibitory concentrations (MIC90) CM435 [6]: >64; Minimal inhibitory concentrations (MIC90) CM400 [7]: >64
6 | CCC(=O)Nc1c2sscc-2n(C)c1=O [aureothricin] | – | – | – | – | – | – | – | – | – | – | – | – | bioactive | –
7 | COC1C(O)CC(OC2CC(Oc3cc4cc5c(c(O)c4c(O)c3C)C(=O)[C@@H](OC3CC(OC4CC(OC6CC(C)(O)C(OC(C)=O)C(C)O6)C(O)C(C)O4)C(O)C(C)O3)[C@H]([C@H](OC)C(=O)[C@@H](O)[C@@H](C)O)C5)OC(C)C2OC(C)=O)OC1C (some centres unmarked) [chromomycin] | – | – | – | – | – | – | – | – | – | – | – | active | – | –
8 | O=C(O)/C=C/CC[C@@H]1SC[C@@H]2NC(=O)N[C@@H]21 [lydimycin] | – | – | – | – | – | – | – | – | – | – | – | – | bioactive | –
9 | CC(=O)Nc1c2sscc-2n(C)c1=O [thiolutin] | – | – | – | – | – | – | – | – | – | – | – | – | bioactive | –
10 | albomycin | – | – | – | – | – | – | – | – | – | – | – | – | bioactive | –
11 | chrysomycin | – | – | – | – | – | – | – | – | – | – | – | active | – | –
12 | streptavidin | – | – | – | – | – | – | – | – | – | – | – | – | bioactive | –
